The values below come from ChEMBL document CHEMBL1201862, “PubChem BioAssay data set” (2004).

Common to all, as to assay: DTP human tumour cell line panel, 48 h
Assay [1] deals with SNB-19.
Assay [2] deals with NCI-H460.
Assay [3] concerns UO-31.
In assay [4] the test system is M14.
For assay [5], the system named is KM12.
Assay [6] relates to SW-620.
For assay [7], the system named is K562.
In assay [8] the test system is SK-MEL-5.
Assay [9] concerns RXF 393.
The test system of assay [10] is HCT-116.
Assay [11] relates to NCI-H23.
The test system of assay [12] is KM-20L2.
The test system of assay [13] is SK-OV-3.
Assay [14] has as its system CCRF-CEM.
Assay [15] concerns A549.
Assay [16] concerns IGROV-1.
Assay [17] relates to HL-60.
The subject of assay [18] is OVCAR-3.

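Grown in 96-well plates, cells were treated for 48 hours with each compound at five concentrations. Insufficient inhibition: endpoint recorded as highest concentration tested. At the GI50, growth is halved.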 Active and inactive are the calls of the source. Rule as the data show it: active = GI50 up to about 1.1 µM and inactive = higher.

By GI50 is commonly meant the concentration that inhibits growth by half. Turning to `COC(=O)C(C(=O)C(=O)Nc1ccc(C)cc1C)c1nc2ccc([N+](=O)[O-])cc2nc1O` (stereo unspecified), the GI50 in [1] is > 100 µM (inactive); in [2] it was > 100 µM (inactive); in [3], 76.2 µM (inactive); in assay [4], > 100 µM (inactive); in assay [5], > 100 µM (inactive); in assay [6], > 100 µM (inactive). Moreover, the GI50 in assay [7] is 78.7 µM (inactive); in assay [8] it was > 100 µM (inactive); in assay [9], > 100 µM (inactive); in assay [10], > 100 µM (inactive); in assay [11], > 100 µM (inactive); in assay [12] it was > 100 µM (inactive). Also, the GI50 is > 100 µM (inactive) in [13]; 71.4 µM (inactive) in [14]; > 100 µM (inactive) in assay [15]; > 100 µM (inactive) in assay [16]; 34.8 µM (inactive) in [17].

With `Cc1ccc(/C=C(\NC(=O)c2ccccc2)c2nc3ccccc3[nH]2)cc1`, the GI50 is 39.4 µM (inactive) in [1]; 37.2 µM (inactive) in [2]; 48.9 µM (inactive) in assay [3]; 50 µM (inactive) in [4]; 40.6 µM (inactive) in assay [5]; 50.4 µM (inactive) in assay [6]. Also, the GI50 is 12.8 µM (inactive) in assay [8]; > 100 µM (inactive) in assay [9]; 37.2 µM (inactive) in assay [10]; 59.6 µM (inactive) in assay [11]; 46.9 µM (inactive) in assay [18]; 47.1 µM (inactive) in assay [12]. For the same molecule, the GI50 in assay [15] was 42.7 µM (inactive); in assay [16], > 100 µM (inactive); in assay [17], 23.9 µM (inactive).

`CCO[C@]12C[C@H](OC)[C@@]3(O)CC(C1[C@H]3OCc1ccccc1)C13C4C2[C@H](OC)C1[C@](COC)(CN4CC)[C@H](O)C[C@@H]3OC` (stereo partly specified): the GI50 in assay [1], in assay [2], in assay [3], in [4], in assay [6] and in [7] was > 100 µM (inactive) in each case. For the same molecule, the GI50 in assay [8], in assay [9], in assay [10], in assay [11], in assay [12] and in [13] was > 100 µM (inactive) each time. The GI50 in [14], in assay [15], in assay [16] and in assay [17] was > 100 µM (inactive) throughout.

In the case of `CC(=O)OCC1OC(n2c(=O)[nH]c(=O)c3nn[nH]c32)C(OC(C)=O)C(OC(C)=O)C1OC(C)=O` (stereo unspecified), the GI50 in assay [1], in [2], in [3], in assay [4], in [6] and in assay [7] was > 100 µM (inactive) throughout. Also, the GI50 in assay [8], in [9], in [10], in assay [11], in assay [12] and in assay [13] was > 100 µM (inactive) throughout. For the same molecule, the GI50 in assay [14], in assay [15], in assay [16] and in assay [17] was > 100 µM (inactive) each time.

As to `CCCOc1ccc(/C=C/c2cc(OC)c(OC)c(OC)c2)cc1`, the concentration for 50% growth inhibition (GI50) in [1] is 0.681 µM (active); in [2], 0.439 µM (active); in assay [3] it was 0.482 µM (active); in assay [4], 0.252 µM (active); in assay [5], 0.305 µM (active); in [6] it was 0.218 µM (active). Further, the concentration for 50% growth inhibition (GI50) in [7] is 0.0733 µM (active); in assay [8] it was 0.144 µM (active); in assay [9], 0.254 µM (active); in assay [10], 0.552 µM (active); in assay [11], 0.23 µM (active); in assay [18], 0.146 µM (active). Also, the GI50 in assay [12] was 0.2 µM (active); in assay [14], 0.324 µM (active); in assay [15], 0.452 µM (active); in assay [16], 0.399 µM (active); in [17], 0.155 µM (active).
